Measurements: article PMC10974242, “Killing of Plasmodium Sporozoites by Basic Amphipathic α-Helical Fusion Peptides” (Microorganisms, 2024)
Where “and” joins values, the source holds several entries; their conditions need not be identical. Identical values can stand only once. No end group written: not given here. *: point of attachment. FITC = O=C1OC2(c3ccc(O)cc3Oc3cc(O)ccc32)c2ccc(NC(=S)*)cc21

What was measured:
[1] = tested on: P. berghei (Pb) salivary gland sporozoites; type: cell-based, P. berghei ANKA; conditions: for killing of GFP-expressing Pb sporozoites (in words): 3-9 independent experiments
Protocol: (§1) To assess the cytotoxic effect of the different peptides on sporozoites, we performed an in vitro assay as previously described. Briefly, sporozoites were incubated at 37 °C for 45 min with different peptides in the presence of 10% fetal calf serum (FCS). Samples were next, incubated for 10 min with 5 µg/mL propidium iodide (PI, Invitrogen, WA, USA) on ice and either imaged in an inverted Axio Observer Z.1 microscope (Zeiss, Oberkochen, Germany) and analyzed using Fiji or diluted 10 times with cold PBS before acquisition on a CytoFLEX S flow cytometer (Beckman Coulter, Brea, CA, USA). For the Pf cytotoxic assay, a final concentration of 0.5 µM cytochalasin D (Sigma-Aldrich) was used in some conditions. Viability was defined as the percentage of GFP+PI- sporozoites to the sum of GFP+PI-, GFP+PI+, and GFP-PI+ sporozoites. Data were analyzed using the CytExpert 2.0 software (Beckman Coulter).
(§2) To evaluate the killing of plasmodial sporozoites by membrane-active molecules, we tested the activity of cationic amphipathic α-helical peptides listed in Figure 1 on P. berghei (Pb), P. yoelii (Py), and P. falciparum (Pf) salivary gland sporozoites in vitro. Quantification of sporozoite death was measured by flow cytometry based on the uptake of propidium iodide (PI), a live cell impermeant nucleic acid fluorescent dye, and/or by the loss of parasite fluorescence following 45 min incubation at 37 °C in PBS 10% fetal calf serum (FCS).

[2] = tested on: P. falciparum (Pf) salivary gland sporozoites; assay: Sporozoite cytotoxicity assay (PI uptake), with or without cytochalasin D; type: cell-based; conditions: 45 min, 37 °C; for killing of Pf sporozoites (in words): 20 µM peptide, PBS 10% FCS
Protocol: as §1, §2

human cells = conditions: cited from earlier work
Text: Conversely, RT53, which combines the sequences of two basic amphipathic helical peptides (Figure 1B), one capable of translocating into cells and the other containing a heptad leucine repeat domain, which acts as a protein–protein interaction domain [32, 39], was able to kill Pb and Pf sporozoites.

cancer cells = conditions: cited from earlier work
Text: (§3) We next tested the killing activity of a series of cationic amphipathic peptides consisting of penetratin (Figure 1, RK16), a cell-penetrating peptide (CPP) derived from the Drosophila melanogaster homeotic protein antennapedia a-helix 3 [25], fused with peptides derived from the a-helix 18 of the antiapoptosis clone 11 (AAC11) also known as Apoptosis Inhibitor 5 protein [26] (Figure 1, RL37, RT39, and RT53).

[3] = tested on: CD4+ T cells susceptible to HIV infection; conditions: cited from earlier work
Text: as §3

[4] = tested on: P. berghei (Pb) salivary gland sporozoites; type: cell-based, P. berghei ANKA; conditions: 20 µM peptide, 37 °C, flow cytometry, n = 2
Pb sporozoites = assay: Dynamic microscopy and gliding motility assay of sporozoites; type: cell-based, P. berghei ANKA
Protocol: To visualize the killing of the sporozoites by the peptide, Pb sporozoites expressing mCherry were incubated with 20 μM of RT39 and RT39-FITC. First, 5000 sporozoites were activated in 10% FCS/PBS on an 18-well slide (iBidi, Gräfelfing, Germany). After 5 min, the peptide was added with 1 μM of To-Pro 3 and the sporozoites were immediately recorded for 15–30 min using a spinning-disk confocal system (UltraView ERS, PerkinElmer, Shelton, CT, USA) controlled by Volocity (PerkinElmer), composed of 4 Diode Pumped Solid State Lasers, a Yokogawa Confocal Scanner Unit CSU22, a z-axis piezoelectric actuator, and a Hamamatsu Orca-Flash 4.0 camera mounted on a Axiovert 200 microscope (Zeiss). Time-lapses were analyzed using Fiji.
To assess gliding motility, 5000 sporozoites were resuspended in 10% FCS/PBS in a final volume of 10 µL. The resulting suspension was transferred to an 18-well slide (iBidi) and centrifuged at 400× g for 3 min at 4 °C. The slide was then allowed to equilibrate at 37 °C, 5% CO2 for 3 min in the incubation chamber (Incubation System S, Zeiss) of an inverted epifluorescence wide-field microscope (AxioObserver Z.1, Zeiss) equipped with a LED illumination system (Colibri2, Zeiss), a CCD camera (AxioCam MR, Zeiss), and controlled by the AxioVision software (version 4.8.2.0, Zeiss). After 3 min, a time-lapse movie at a rate of one image per second was recorded for 2 min to control for initial parasite motility. After the 2 min recording, 10 µL of PBS or 20 µM of RT39 were added on top, and the parasites were immediately imaged for 20 min. The average sporozoite velocity at different time points was determined using the MTrack2 plug-in from Fiji.
RT39 induced a fast killing of Pb sporozoites in comparison with anti-CSP antibody as measured by flow cytometry. While 20 µM of the cytotoxic peptide killed most parasites before 5 min of incubation, 10 µg/mL of cytotoxic antibody needed more than 20 min to eliminate the majority of sporozoites (Figure 3A). To better understand the way RT39 is acting on Pb sporozoites, we dynamically imaged the cytotoxic effect of the peptide on fluorescent sporozoites in the presence of To-Pro 3, a live-cell impermeant far-red fluorescent nucleic acid dye. Given its fast-killing kinetics, RT39 was added to a microscopy chamber containing PBS 10% FCS and sporozoites, which were immediately recorded for 20 min at 37 °C. In the presence of FCS, most sporozoites move in a circular way in a substrate-dependent manner. Sporozoite death was assessed by the incorporation of To-Pro 3 and/or by the loss of cytoplasmic fluorescence. Following the addition of RT39 to sporozoites, a lag phase of around 5 min was observed, probably corresponding to the diffusion and peptide binding to sporozoites, after which parasites started to die in quick succession (Figure 3B).

P. cynomolgi oocysts = conditions: in vivo, at concentrations that start to be toxic to mosquitoes; cited from earlier work
[5] = tested on: Escherichia coli DH5α (Ec); assay: E. coli viability, CFU quantification after incubation with cecropin B; type: cell-based; conditions: 2 µM cecropin B, 10 min, 37 °C, 10% FCS/PBS, CFU normalised to control; 3-4 independent experiments
Protocol: Escherichia coli DH5α (Ec) were grown at 37 °C under agitation in LB medium at an OD620 of approximately 0.35 (corresponding to 10^8 CFU/mL). After centrifugation and washing with PBS, the equivalent of 10^7 colony-forming units (CFUs)/mL were incubated at 37 °C for 10 min with or without Cecropin B (Sigma-Aldrich) in 10%FCS/PBS at concentrations ranging from 2 to 100 μM. The suspensions of bacteria were diluted 1000× in PBS and 50 µL were spread on LB-agar plates for CFU quantification. Viability was assessed by normalizing the number of CFU to the control group. A sample of E. coli heated at 70 °C for 10 min was used as a death control.
Cecropin B is a prototypical antimicrobial peptide (AMP, Figure 1) discovered in the hemolymph of the Cecropia moth. […] Since our sporozoite killing assay contains 10% FCS, which can inhibit the antimicrobial activity of several AMPs, we first tested the antimicrobial activity of cecropin B in the presence of 10% FCS.

Pf oocysts = conditions: in vivo, at concentrations that start to be toxic to mosquitoes; cited from earlier work
P. knowlesi oocysts = conditions: in vivo, at concentrations that start to be toxic to mosquitoes; cited from earlier work
[6] = tested on: P. yoelii (Py) salivary gland sporozoites; assay: Sporozoite cytotoxicity assay (PI uptake / loss of fluorescence); type: cell-based, P. yoelii 17XNL; conditions: 100 µM, 45 min incubation, 10% FCS/PBS; 3-4 independent experiments
Protocol: as §1, with “Viability was defined as the percentage of GFP+PI- sporozoites to the sum of GFP+PI-, GFP+PI+, and GFP-PI+ sporozoites.” left out
as §2

[7] = tested on: P. gallinaceum sporozoites; conditions: 250 µM; cited from earlier work
Protocol: Many natural antimicrobial peptides (AMPs), such as magainin, cecropin, and defensins, can kill oocysts from different plasmodial species when injected or over-expressed in the insect hemolymph. However, avian-infecting P. gallinaceum sporozoites are resistant to incubation with 250 µM of the AMPs metalnikowin, thanatin, drosocin, and metchnikowin. […] Yet, despite rendering mosquitoes susceptible to Gram-positive bacterial challenge, the k ...

[8] = 20 µM peptide, 45 min, 37 °C, 10% FCS/PBS, flow cytometry

RQIKIWFQNRRMKWKK [RK16, cell-penetrating peptide derived from the Drosophila melanogaster homeotic protein antennapedia a-helix 3, reference compound]
killing of GFP-expressing Pb sporozoites (in words) [1, 8]: did not significantly kill

RQIKIWFQNRRMKWKKAKLNAEKLKDFKIRLQYFARGLQVYIRQLRLALQGKT [RT53]
killing of Pf sporozoites (in words) [2]: able to kill
incubation time at which membrane permeabilization plateaus (human cells): 60 min
membrane permeabilization activity compared with RT39 (human cells): equivalent or higher
Pb sporozoites killed [1, 8]: around 50%
killing of GFP-expressing Pb sporozoites (in words) [1, 8]: able to kill
cell death of cancer cells (cancer cells): elicit the cell death
cell death of CD4+ T cells susceptible to HIV infection [3]: elicit the cell death

RQIKIWFQNRRMKWKKKDFKIRLQYFARGLQVYIRQL [RL37, penetratin fused with a peptide derived from the a-helix 18 of AAC11]
killing of GFP-expressing Pb sporozoites (in words) [1, 8]: did not significantly kill

RQIKIWFQNRRMKWKKLQYFAAGLQVYIRQLRLALQGGKT [RT39M]
Pb sporozoite death compared with RT39 ([1]; 2, 10, 40, 80 μM, 45 min, 37 °C, flow cytometry, n = 3): strongly decreased

RQIKIWFQNRRMKWKKLQYFARGLQVYIRQLRLALQGGKT [RT39, penetratin fused with shorter AAC11 a-helix 18 peptide]
lethality to Pf sporozoites compared with cytotoxic anti-CSP antibody ([2]; 20 µM peptide vs cytotoxic anti-CSP antibody): as lethal as or more than
killing of Pf sporozoites (in words) [2]: stronger killing activity than RT53
incubation time at which most Pb sporozoites are killed [4]: < 5 min and 5 min
lethality to Pb sporozoites compared with cytotoxic anti-CSP antibody ([1]; 20 µM peptide vs 10 µg/mL anti-PbCSP (3D11), 45 min, 37 °C): as lethal as or more than
cell death of cancer cells (cancer cells): elicit the cell death
cell death of CD4+ T cells susceptible to HIV infection [3]: elicit the cell death
time of sudden stop in motility with To-Pro 3 entry and mCherry leakage (Pb sporozoites; 20 µM RT39, exemplified dying sporozoite): ~ 450 s
effect on sporozoite motility (speed) before permeabilization (Pb sporozoites; 20 µM RT39, two-minute analysis of speed at end of lag phase or beginning of death plateau, 2-3 independent experiments): did not significantly impact sporozoite motility
lag phase before parasites start to die (Pb sporozoites; 20 µM RT39 added to sporozoites in PBS 10% FCS, 37 °C, recorded 20 min, microscopy): around 5 min

cecropin B: cationic amphipathic antimicrobial insect peptide from Hyalophora cecropia, purchased from Sigma-Aldrich (KWKVFKKIEKMGRNIRNGIVKAGPAIAVLGEAKAL; ends and bridges not checked; UniProt P01508 27-61, looked up)
development of P. cynomolgi oocysts (P. cynomolgi oocysts): inhibit the development
killing of E. coli [5]: efficiently kill
killing of Pb sporozoites ([1]; 100 µM, 45 min incubation, 10% FCS/PBS, 3-4 independent experiments): did not significantly kill
development of Pf oocysts (Pf oocysts): inhibit the development
development of P. knowlesi oocysts (P. knowlesi oocysts): inhibit the development
killing of Py sporozoites [6]: did not significantly kill

drosocin
susceptibility of P. gallinaceum sporozoites to incubation [7]: resistant

metchnikowin
susceptibility of P. gallinaceum sporozoites to incubation [7]: resistant

thanatin
susceptibility of P. gallinaceum sporozoites to incubation [7]: resistant

{FITC}-RQIKIWFQNRRMKWKKLQYFARGLQVYIRQLRLALQGGKT [RT39-FITC, FITC-labeled RT39]
Ratio MFI SPZ/Bk of live parasites (Pb sporozoites; 20 µM RT39-FITC in solution, spinning-disk microscopy, 1 μM To-Pro 3, 10% FCS/PBS): ~ 1
site of membrane permeabilization on the sporozoite body (Pb sporozoites; 20 μM RT39-FITC, 1 μM To-Pro 3, n = 34 sporozoites from 2 independent experiments): frequently occurred at the posterior part of the sporozoite body
